Molecular target: T1, recombinant EphB4 (Homo sapiens, UniProt P54760)
T1 construct: amino acids 563-987; Swiss-Prot Acc; No. P54760; purchased ProQinase GmbH 0178-0000-3
T1 sequence (P54760 563-987): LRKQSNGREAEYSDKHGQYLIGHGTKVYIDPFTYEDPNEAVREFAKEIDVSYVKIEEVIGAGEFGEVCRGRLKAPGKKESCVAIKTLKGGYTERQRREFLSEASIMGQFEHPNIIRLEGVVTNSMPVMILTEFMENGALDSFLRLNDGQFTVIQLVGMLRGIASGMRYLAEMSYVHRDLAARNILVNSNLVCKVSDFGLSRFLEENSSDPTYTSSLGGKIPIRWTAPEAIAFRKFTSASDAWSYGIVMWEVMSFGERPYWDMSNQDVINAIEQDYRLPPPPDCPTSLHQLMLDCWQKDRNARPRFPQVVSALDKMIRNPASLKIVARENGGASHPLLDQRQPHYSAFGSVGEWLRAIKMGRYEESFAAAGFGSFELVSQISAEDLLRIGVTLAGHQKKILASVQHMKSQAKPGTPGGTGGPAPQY
Assay: In vitro EphB4 enzyme assay (Alphascreen)
Type: biochemical
Experimental: This assay detects inhibitors of EphB4-mediated phosphorylation of a polypeptide substrate using Alphascreen™ luminescence detection technology. Briefly, recombinant EphB4 was incubated with a biotinylated-polypeptide substrate (biotin-poly-GAT) in presence of magnesium-ATP. The reaction was stopped by addition of EDTA, together with streptavidin-coated donor beads which bind the biotin-substrate containing any phosphorylated tyrosine residues. Anti-phosphotyrosine antibodies present on acceptor beads bind to phosphorylated substrate, thus bringing the donor & acceptor beads into close proximity. Subsequent excitation of the donor beads at 680 nm generated singlet oxygen species that interact with a chemiluminescer on the acceptor beads, leading to light emission at 520-620 nm. The signal intensity is directly proportional to the level of substrate phosphorylation and thus inhibition is measured by a decrease in signal.
Assay plates were then incubated at room temperature for 1 hr. […] The plates were sealed under natural lighting conditions, wrapped in aluminium foil and incubated in the dark for a further 20 hrs.
The resulting assay signal was determined on the Perkin Elmer EnVision plate reader. The minimum value was subtracted from all values, and the signal plotted against compound concentration to generate IC50 data.

Row | SMILES | IC50 [nM]
1 | Cc1ccc(CO)cc1N(C)c1ccnc(Nc2cc(N3CCOCC3)cc(N3CCOC[C@@H]3C)c2)n1 [Example 7.17, (S)-(4-methyl-3-(methyl(2-(3-(3-methylmorpholino)-5-morpholinophenyl-amino)pyrimidin-4-yl)amino)phenyl)methanol] | 3.13
2 | Cc1ccc(CO)cc1N(C)c1ccnc(Nc2cc(N3CCOCC3)cc(N3CCOC[C@H]3C)c2)n1 [Example 7.18, (R)-(4-methyl-3-(methyl(2-(3-(3-methylmorpholino)-5-morpholinophenyl-amino)pyrimidin-4-yl)amino)phenyl)methanol] | 6.45
3 | Cc1ccc(CO)cc1N(C)c1ccnc(Nc2cc(N3CCOCC3)cc(N3CCC(=O)CC3)c2)n1 [Example 7.19, 1-(3-(4-((5-(hydroxymethyl)-2-methylphenyl)(methyl)amino)pyrimidin-2-ylamino)-5-morpholinophenyl)piperidin-4-one] | 9.73
4 | Cc1ccc(N(C)c2ccnc(Nc3cc(N4CCOCC4)cc(N4CCOCC4)c3)n2)cc1 [Example 10.1, N-(3,5-dimorpholin-4-ylphenyl)-N′-methyl-N′-(4-methylphenyl)pyrimidine-2,4-diamine] | 402
5 | CSc1cccc(N(C)c2ccnc(Nc3cc(N4CCOCC4)cc(N4CCOCC4)c3)n2)c1 [Example 10.7, N-(3,5-dimorpholin-4-ylphenyl)-N′-methyl-N′-(3-methylsulfanylphenyl)pyrimidine-2,4-diamine] | 638
6 | CN(c1ccc(Cl)c(Cl)c1)c1ccnc(Nc2cc(N3CCOCC3)cc(N3CCOCC3)c2)n1 [Example 10.11, N′-(3,4-dichlorophenyl)-N-(3,5-dimorpholin-4-ylphenyl)-N′-methyl-pyrimidine-2,4-diamine] | 660
7 | CN(c1ccnc(Nc2cc(N3CCOCC3)cc(N3CCOCC3)c2)n1)c1ccc(F)cc1F [Example 10.14, N′-(2,4-difluorophenyl)-N-(3,5-dimorpholin-4-ylphenyl)-N′-methyl-pyrimidine-2,4-diamine] | 381
8 | CN(c1ccnc(Nc2cc(N3CCOCC3)cc(N3CCOCC3)c2)n1)c1ccccc1F [Example 10.16, N-(3,5-dimorpholin-4-ylphenyl)-N′-(2-fluorophenyl)-N′-methyl-pyrimidine-2,4-diamine] | 237
9 | CN(c1ccc(C#N)cc1)c1ccnc(Nc2cc(N3CCOCC3)cc(N3CCOCC3)c2)n1 [Example 10.17, 4-[[2-[(3,5-dimorpholin-4-ylphenyl)amino]pyrim-idin-4-yl]-methyl-amino]benzonitrile] | 9780
10 | CN(c1cc(Cl)cc(CO)c1)c1ccnc(Nc2cc(N3CCOCC3)cc(N3CCOCC3)c2)n1 [Example 10.20, [3-chloro-5-[[2-[(3,5-dimorpholin-4-ylphenyl)amino]pyrimidin-4-yl]-methyl-amino]phenyl]methanol] | 338
11 | COc1ccc(C)c(N(C)c2ccnc(Nc3cc(N4CCOCC4)cc(S(C)(=O)=O)c3)n2)c1 [Example 12.2, N′-(5-methoxy-2-methyl-phenyl)-N′-methyl-N-(3-methylsulfonyl-5-morpholin-4-yl-phenyl)pyrimidine-2,4-diamine] | 29.4
12 | COc1ccc(C)c(N(C)c2ccnc(Nc3cc(N4CCOCC4)cc(N4CCN(C)CC4)c3)n2)c1 [Example 12.4, N′-(5-methoxy-2-methyl-phenyl)-N′-methyl-N-[3-(4-methylpiperazin-1-yl)-5-morpholin-4-yl-phenyl]pyrimidine-2,4-diamine] | 171
13 | COc1ccc(C)c(N(C)c2ccnc(Nc3cc(N4CCOCC4)cc(N4CCC(O)CC4)c3)n2)c1 [Example 12.5, 1-(3-(4-((5-methoxy-2-methylphenyl)(methyl)amino)pyrim-idin-2-ylamino)-5-morpholinophenyl)piperidin-4-ol] | 2.95
14 | COc1ccc(C)c(N(C)c2ccnc(Nc3cc(N4CCNCC4)cc(N4CCOCC4)c3)n2)c1 [Example 12.6, N4-(5-methoxy-2-methylphenyl)-N4-methyl-N2-(3-morpholino-5-(piperazin-1-yl)phenyl)pyrimidine-2,4-diamine] | 3.4
15 | COc1ccc(NC(C)=O)c(N(C)c2ccnc(Nc3cc(N4CCOCC4)cc(N4CCOCC4)c3)n2)c1 [Example 13.1, N-[2-[[2-[(3,5-dimorpholin-4-ylphenyl)amino]pyrimidin-4-yl]-methyl-amino]-4-methoxy-phenyl]acetamide] | 470
16 | COc1ccc(NC(C)=O)c(N(C)c2ccnc(Nc3cc(N4CCOCC4)cc(S(C)(=O)=O)c3)n2)c1 [Example 13.2, N-[4-methoxy-2-[methyl-[2-[(3-methylsulfonyl-5-morpholin-4-yl-phenyl)amino]pyrimidin-4-yl]amino]phenyl]acetamide] | 426
17 | CN(c1ccnc(Nc2cc(N3CCOCC3)cc(N3CCOCC3)c2)n1)c1cccc(F)c1F [Example 14, N′-(2,3-difluorophenyl)-N-(3,5-dimorpholin-4-ylphenyl)-N′-methyl-pyrimidine-2,4-diamine] | 370

The remaining lines, values ahead:

Row | IC50 [nM] | SMILES
18 | 22.2 | Cc1ccc(CO)cc1N(C)c1ccnc(Nc2cc(N3CCOCC3)cc(N3CCOCC3=O)c2)n1 [Example 7.16, 4-[3-[[4-[[5-(hydroxymethyl)-2-methyl-phenyl]-methyl-amino]pyrimidin-2-yl]amino]-5-morpholin-4-yl-phenyl]morpholin-3-one]
19 | 414 | CCN(c1ccnc(Nc2cc(N3CCOCC3)cc(S(C)(=O)=O)c2)n1)c1cc(CO)ccc1C [Example 8.1, [3-[ethyl-[2-[(3-methylsulfonyl-5-morpholin-4-yl-phenyl)amino]pyrimidin-4-yl]amino]-4-methyl-phenyl]methanol]
20 | 917 | Cc1ccc(CO)cc1N(CC(C)C)c1ccnc(Nc2cc(N3CCOCC3)cc(S(C)(=O)=O)c2)n1 [Example 8.3, [4-methyl-3-[2-methylpropyl-[2-[(3-methylsulfonyl-5-morpholin-4-yl-phenyl)amino]pyrimidin-4-yl]amino]phenyl]methanol]
21 | 1070 | Cc1ccc(CO)cc1N(CC1CC1)c1ccnc(Nc2cc(N3CCOCC3)cc(S(C)(=O)=O)c2)n1 [Example 8.4, [3-[cyclopropyl-methyl-[2-[(3-methylsulfonyl-5-morpholin-4-yl-phenyl)amino]pyrimidin-4-yl]amino]-4-methyl-phenyl]methanol]
22 | 340 | CN(c1cccc(F)c1)c1ccnc(Nc2cc(N3CCOCC3)cc(N3CCOCC3)c2)n1 [Example 10.5, N-(3,5-dimorpholin-4-ylphenyl)-N′-(3-fluorophenyl)-N′-methyl-pyrimidine-2,4-diamine]
23 | 1100 | Cc1cc(C)cc(N(C)c2ccnc(Nc3cc(N4CCOCC4)cc(N4CCOCC4)c3)n2)c1 [Example 10.8, N′-(3,5-dimethylphenyl)-N-(3,5-dimorpholin-4-ylphenyl)-N′-methyl-pyrimidine-2,4-diamine]
24 | 527 | CN(c1cccc(C#N)c1)c1ccnc(Nc2cc(N3CCOCC3)cc(N3CCOCC3)c2)n1 [Example 10.10, 3-[[2-[(3,5-dimorpholin-4-ylphenyl)amino]pyrimidin-4-yl]-methyl-amino]benzonitrile]
25 | 107 | COc1ccccc1N(C)c1ccnc(Nc2cc(N3CCOCC3)cc(N3CCOCC3)c2)n1 [Example 10.12, N-(3,5-dimorpholin-4-ylphenyl)-N′-(2-methoxyphenyl)-N′-methyl-pyrimidine-2,4-diamine]
26 | 811 | Cc1cc(C)c(N(C)c2ccnc(Nc3cc(N4CCOCC4)cc(N4CCOCC4)c3)n2)c(C)c1 [Example 10.13, N-(3,5-dimorpholin-4-ylphenyl)-N′-methyl-N′-(2,4,6-trimethylphenyl)pyrimidine-2,4-diamine]
27 | 150 | CN(c1ccnc(Nc2cc(N3CCOCC3)cc(N3CCOCC3)c2)n1)c1cc(CO)ccc1Cl [Example 10.19, [4-chloro-3-[[2-[(3,5-dimorpholin-4-ylphenyl)amino]pyrimidin-4-yl]-methyl-amino]phenyl]methanol]
28 | 455 | COc1ccc(C)c(N(C)c2ccnc(Nc3cc(C(=O)N(C)C)cc(N4CCOCC4)c3)n2)c1 [Example 12.3, 3-[[4-[(5-methoxy-2-methyl-phenyl)-methyl-amino]pyrimidin-2-yl]amino]-N,N-dimethyl-5-morpholin-4-yl-benzamide]
29 | 305 | COc1ccc(C)c(N(C)c2ccnc(Nc3cc(N4CCOCC4)cc(N4CCOCC4=O)c3)n2)c1 [Example 12.7, 4-[3-[[4-[(5-methoxy-2-methyl-phenyl)-methyl-amino]pyrimidin-2-yl]amino]-5-morpholin-4-yl-phenyl]morpholin-3-one]
30 | 5.82 | COc1ccc(C)c(N(C)c2ccnc(Nc3cc(N4CCOCC4)cc(N4CCOC[C@@H]4C)c3)n2)c1 [Example 12.8, (S)-N4-(5-methoxy-2-methylphenyl)-N4-methyl-N2-(3-(3-methylmorpholino)-5-morpholinophenyl)pyrimidine2,4-diamine]

Source: patent US20080242663A1, “NOVEL PYRIMIDINE DERIVATIVES 698” (ASTRAZENECA AB, priority 2007, published 2008)
